Reference: PMC10800708, “Efficacies and ADME properties of redox active methylene blue and phenoxazine analogues for use in new antimalarial triple drug combinations with amino-artemisinins” (Frontiers in Pharmacology, 2024)
Where two headings read alike, the source gives them in different places.

Legend:
[1] = system: Plasmodium falciparum NF54; experiment: Parasite lactate dehydrogenase (pLDH) assay over 72 h, CQ-sensitive strain; assay type: cell-based
Experimental: The assay was performed in quadruplicate. The data were analyzed by nonlinear regression analysis using the GraphPad PRISM version 5.00 program to determine the IC50 of each compound.

[2] = system: Chinese Hamster Ovary (CHO) cell line, CHO-K1; experiment: MTT cytotoxicity assay; assay type: cell-based; conditions: for IC50: Cricetulus griseus, CHO cells, MTT; for Selectivity index CHO/resistant Pf strain: cytotoxicity IC50/activity IC50, CHO/DD2; for Selectivity index CHO/sensitive Pf strain: cytotoxicity IC50/activity IC50, CHO/NF54
Experimental: Cytotoxicity assays were conducted against the Chinese Hamster Ovary (CHO) cell line, ATCC CCL-61, strain CHO-K1. […] Cells were grown at 37°C in a humidified atmosphere of 5% CO2 and maintained by passage. Cells lines were seeded in 96-well microtitre plates at 10^4 cells/well in cell medium. […] DMSO (100 µL) was added to dissolve the MTT formazan precipitate, and the plates were gently agitated for 2 min to ensure homogeneity. Absorbance was measured at 540 nm using a Turner BioSystems, Inc. ModulusTM II Microplate Reader. The data were analyzed by nonlinear regression analysis using the GraphPad PRISM version 5.00 program to determine the IC50 of each compound.

[3] = Lipophilicity, 1-octanol/phosphate buffer pH 7.4; assay type: physicochemical; conditions: read-out: Lipophilicity LogD7.4
[4] = Plasma stability in pooled human plasma; assay type: in vitro ADME; conditions: for half-life: 37°C
Experimental: . […] The aqueous mobile phase was water with 0.1% formic acid and the organic mobile phase was acetonitrile with 0.1% formic acid. The gradient method has a flow rate of 0.8 mL/min, with a total run time of 2.5 min starting at 5% organic and increasing to 95% at 1.4 min, holding for 40 s before returning to 5% to re-equilibrate the column. • ii. Lipophilicity. Stock solutions (10 mM) of compounds were diluted to 100 μM in 96-well deep-well plate containing 300 µL of 1-octanol and 300 µL of phosphate buffer at pH 7.4. The plate was agitated on an orbital shaker at 750 rpm for 2 h. The organic and buffer layers of each well were transferred separately to a new analysis plate. The samples were analysed with the HPLC diode array detection as described for kinetic solubility. Samples from both layers were analysed to determine LogD7.4 values. • iii. Passive permeability. A parallel artificial membrane permeation assay (PAMPA) was used to assess the passive permeability of compounds with a 96-well MultiScreen filter plate ([…] pore size, Millipore). The filter plate was precoated with 5% hexadecane in hexane. Stock solutions of compounds were diluted to 1 mM in a donor buffer (pH 6.5). Lucifer yellow was added to the apical wells of the precoated MultiScreen plate containing compound donor solution. The donor buffer solutions were spiked with each test compound (1 mM). The acceptor-buffer solution was prepared by adding 10 μL DMSO to 990 μL acceptor buffer (pH 7.4) and 250 μL were added to the basolateral (acceptor) wells. The donor plate was carefully inserted into the acceptor plate and incubated at room temperature for 4 h. After the incubation period, 50 μL of samples from the acceptor plate were transferred to a round bottom 96-well plate, together with 30 μL of donor buffer for matrix matching. Theoretical equilibrium samples for each test compound were prepared by adding 150 μL of donor solutions to 250 μL acceptor solutions and left at room temperature. These theoretical equilibrium samples represent complete transfer of the compound into the donor well. For the theoretical equilibrium samples, 80 μL were added to the analysis plate. Lastly, 160 μL of the internal standard carbamazepine (0.1 μM) was added to all acceptor and equilibrium samples. A portion of the sample containing Lucifer yellow was analyzed on a BioRad iMarkTM Microplate Absorbance Reader (BioRad, Hercules, CA, United States; […]. Samples were analysed using reverse phase Gemini NX-C18 column (5 μm, 2.1 mm × 50 mm) with a Shimadzu HPLC coupled with an AB Sciex 3200 Q TRAP MS). […]. Plasma stability. Stock solutions of compounds in DMSO (10 mM) were used to spike pooled human plasma. […]
. Plasma protein binding was determined in pooled human plasma using an ultracentrifugation method. […]

[5] = Metabolic stability in mouse liver microsomes; assay type: in vitro ADME
Experimental: (§1) Eq. 4 Predicted t1/2 t1/2=−0.693/λ (4) Where λ is the slope of the Ln % parent remaining vs. time curve. • v. Plasma protein binding. Plasma protein binding was determined in pooled human plasma using an ultracentrifugation method. Stock solutions of test compounds (10 mM) were diluted in phosphate buffer and spiked into plasma in deep well 96-well plates (10 µM). An aliquot of each compound was immediately precipitated with ice cold acetonitrile containing the internal standard carbamazepine (0.1 μM). These served as total concentration samples. After incubation in a water bath at 37°C for 1 h, the samples were transferred to ultracentrifuge tubes in duplicate and centrifuged for 4 h at 37°C and 30,000 g (Optima L-80XP, Beckman). Following centrifugation, the supernatant was transferred to the plate containing the total concentration samples and precipitated with ice cold acetonitrile containing the internal standard. Analyte concentrations of all compounds were determined via LC-MS/MS (reverse phase Gemini NX-C18 column and Shimadzu HPLC coupled with an AB Sciex 3200 Q TRAP MS) as described above. • vi. Metabolic stability. A 5-point metabolic stability assay in human and mouse liver microsomes were performed in duplicate in 96-well plates. […] The cofactor NADPH was added, and the reactions were subsequently stopped at time points 5, 10, 30 and 60 min by removal of an aliquot and quenching with ice cold acetonitrile containing the internal standard. The supernatant of all samples was analysed via LC-MS/MS analysis (reverse phase Gemini NX-C18 column and Shimadzu HPLC and AB Sciex 3200 Q TRAP MS) as described above.

[6] = Metabolic stability in human liver microsomes; assay type: in vitro ADME
Experimental: as §1

[7] = CQ-sensitive NF54, pLDH 72 h, n = 3, read-out: Plasmodium falciparum IC50 NF54
[8] = P. falciparum NF54, read-out: NF54 IC50 (dotted line in concentration-time figures)

| SMILES | IC50 [1, 7] [nM] | IC50 [1, 8] [nM] | IC50 [2] [nM] | Selectivity index CHO/resistant Pf strain [2] | Selectivity index CHO/sensitive Pf strain [2] | logD at 2 h [3] | half-life [4] [h] | Parent remaining in plasma after 3 h ([4]; 3 h) [%] | CLint scaled [5] [mL/min/kg] | CLint scaled [6] [mL/min/kg] |
| --- | --- | --- | --- | --- | --- | --- | --- | --- | --- | --- |
| CCN(CC)c1ccc2nc3ccc(=[N+](CC)CC)cc-3sc2c1 [AD01] | 23.1 ± 2.5 | 23 | 74000 ± 9400 | >1,000 | >1,000 | 0.2 | 1.42 | 21 | 80.6 | 16.2 |
| CCN(CC)c1ccc2nc3c4ccccc4/c(=N\c4ccccn4)cc-3oc2c1 [PhX6] | 41.8 ± 0.04 | 41 | 192000 ± 4600 | >1,000 | >1,000 | 1 | > 2.5 |  | 88.2 | 20.2 |
